In PMC3581553, “New Approaches of PARP-1 Inhibitors in Human Lung Cancer Cells and Cancer Stem-Like Cells by Some Selected Anthraquinone-Derived Small Molecules” (PLoS ONE, 2013):
Like-named read-outs stand apart in the source and are kept apart here.

How the values were obtained:
A549/ATCC = experiment: NCI-60 drug screen (SRB), NSCLC line A549/ATCC; format: cell-based, human; conditions: for LC50 (concentration killing 50% of cells) / GI50: Homo sapiens
Experimental: (§1) As a primary screening, seven selected compounds were submitted to the National Cancer Institute (NCI) cell lines screen for evaluation of their anticancer activity. From the data analysis, it follows that approximately 95% of the actives from the 60 cell lines screen can be identified. The detailed methods used for the 60 cell lines panel have been described elsewhere [54]–[59]. Briefly, cellular protein levels were determined after 48 hours of drug exposure by SRB colorimetry. Through the use of a time zero cell control, the cell growth can be determined for each cell line thus allowing calculations of GI50, TGI, and LC50. Comparison to plates not exposed to drug permits determination of concentration and times of exposure conferring GI50, TGI, and LC50. […] By these criteria, seven compounds reported from our compounds bank were all active and passed on for evaluation in the full panel of 60 human tumor cell lines. The panel is organized into nine subpanels representing diverse histology: leukemia, melanoma, and cancers of the lung, colon, kidney, ovary, breast, prostate, and central nervous system.

NCI-H460 = experiment: NCI-60 drug screen (SRB), NSCLC line NCI-H460; format: cell-based, human; conditions: for LC50 (concentration killing 50% of cells) / GI50: Homo sapiens
Experimental: as §1

NCI-H226 = experiment: NCI-60 drug screen (SRB), NSCLC line NCI-H226; format: cell-based, human; conditions: for GI50 / CC50: Homo sapiens; for CC50: read-out: LC50 (the source's name)
Experimental: as §1

NCI-H522 = experiment: NCI-60 drug screen (SRB), NSCLC line NCI-H522; format: cell-based, human; conditions: for GI50 / CC50: Homo sapiens; for CC50: read-out: LC50 (the source's name)
Experimental: as §1

NCI-H23 = experiment: NCI-60 drug screen (SRB), NSCLC line NCI-H23; format: cell-based, human; conditions: for GI50 / CC50: Homo sapiens; for CC50: read-out: LC50 (the source's name)
Experimental: as §1

A549 cells = experiment: MTT cytotoxicity assay, A549 cells; format: cell-based; conditions: Homo sapiens, 48 h of drug exposure
Experimental: (§2) Non-small cell lung cancer cells A549 and Oct-4- and Nanog-overexpressed A549 clone (clone #3; A3), presented the properties of cancer stem-like cells, as well as epithelial-mesenchymal transdifferentiation, according to our previous study. They were grown in the same conditions as RPMI 1640 media supplemented with 10% fetal bovine serum (FBS), 100 units/mL penicillin, […] streptomycin, 1 mM sodium pyruvate, 2 mM l-glutamine and 1% non-essential amino acid (NEAA) in a humidified atmosphere with 5% CO2 at 37°C. Normal fibroblast cells HEL299 from American Type Culture Collection (ATCC) were grown in MEM media supplemented with 10% FBS, 100 units/mL penicillin, […] streptomycin, 1 mM sodium pyruvate, 2 mM l-glutamine and 1% NEAA, in a humidified atmosphere with 5% CO2 at 37°C.
(§3) The tetrazolium reagent (MTT; 3-(4,5-dimethylthiazol-2-yl)-2,5-diphenyl-tetrazolium bromide, USB) was designed to yield a colored formazan upon metabolic reduction by viable cells, [61]. Approximately 5×10^4 cells were plated onto each well of a 24-well plate and incubated in 5% CO2 at 37°C for 24 hours. To assess the in vitro cytotoxicity, each compound was dissolved in DMSO and prepared immediately before the experiments and then was diluted into the complete medium before being added to cell cultures. Test compounds were then added to the culture medium in various designated concentrations. After 48 hours, an amount of 100 µl of MTT was added to each well, and the samples were incubated at 37°C for 2 h. 100 µl DMSO was added to each well. The absorbency at 560 nm and reference absorbency at 670 nm were measured using an ELISA reader.

[1] = tested on: Oct-4- and Nanog-overexpressed A549 clone (A3); experiment: MTT cytotoxicity assay, A3 cells; format: cell-based; conditions: Homo sapiens, 48 h of drug exposure
Experimental: as §2, §3

[2] = 48 hours drug exposure, SRB, read-out: GI50
[3] = NCI in vitro 60-cell lines Drug Screen, read-out: -Log GI50 (converted)

Row | SMILES | TGI (A549/ATCC; 48 hours drug exposure, SRB) | LC50 (concentration killing 50% of cells) (A549/ATCC; 48 hours drug exposure, SRB) | GI50 (A549/ATCC; [2]) | GI50 (A549/ATCC; [3]) | TGI (NCI-H460; 48 hours drug exposure, SRB) | GI50 (NCI-H460; [2]) | GI50 (NCI-H460; [3]) | TGI (NCI-H226; 48 hours drug exposure, SRB) | GI50 (NCI-H226; [2]) | CC50 (NCI-H226; 48 hours drug exposure, SRB) | GI50 (NCI-H226; [3]) | TGI (NCI-H522; 48 hours drug exposure, SRB) | GI50 (NCI-H522; [2]) | GI50 (NCI-H522; [3]) | TGI (NCI-H23; 48 hours drug exposure, SRB) | GI50 (NCI-H23; [2]) | CC50 (NCI-H23; 48 hours drug exposure, SRB) | GI50 (NCI-H23; [3]) | IC50 (A549 cells) | IC50 [1] | further results
1 | CN(C)CC(=O)Nc1ccc2c(c1)C(=O)c1cc(NC(=O)CN(C)C)ccc1C2=O [NSC746364] | 4.43 µM | > 100 µM | 1.45 µM | 1.45 µM | 3.35 µM | 1.37 µM | 1.38 µM | 32.4 µM | 15.5 µM | 67.4 µM | 15.5 µM | 13.1 µM | 1.27 µM | 1.26 µM | 28.1 µM | 11 µM | 71.8 µM | 11 µM | 4.49 µM | 5.9 µM | LC50 (concentration killing 50% of cells) (NCI-H460; 48 hours drug exposure, SRB): 8.2 µM; CC50 (NCI-H522; 48 hours drug exposure, SRB): 66.4 µM
2 | CN1CCN(Cc2nc3ccc4c(c3[nH]2)C(=O)c2ccccc2C4=O)CC1 [NSC749235] | 24.3 µM | 67.2 µM | 7.58 µM | 7.59 µM | 15.2 µM | 3.79 µM | 3.8 µM | 31.1 µM | 8.32 µM | > 100 µM | 8.32 µM | 29.0 µM | 13.8 µM | 13.8 µM | 30.1 µM | 10.7 µM | 84.8 µM | 10.7 µM | 10.6 µM | 7.67 µM | LC50 (concentration killing 50% of cells) (NCI-H460; 48 hours drug exposure, SRB): 45.1 µM; CC50 (NCI-H522; 48 hours drug exposure, SRB): 61 µM
3 | O=C(CCN1CCCC1)Nc1ccc2c(c1)C(=O)c1cc(NC(=O)CCN3CCCC3)ccc1C2=O [NSC746366] | 12.7 µM | 74.7 µM | 2.2 µM | 2.19 µM | >100 µM | 2.69 µM | 2.69 µM | 12.6 µM | 2.72 µM | 58.3 µM | 2.69 µM | 17.1 µM | 3.41 µM | 3.39 µM | 17.3 µM | 2.38 µM | > 100 µM | 2.4 µM | 7.76 µM | 5.77 µM | LC50 (concentration killing 50% of cells) (NCI-H460; 48 hours drug exposure, SRB): > 100 µM; CC50 (NCI-H522; 48 hours drug exposure, SRB): > 100 µM
4 | CN(C)CCCSc1nc2ccc3c(c2[nH]1)C(=O)c1ccccc1C3=O [NSC747854] | 12.6 µM |  | 3.26 µM | 3.24 µM | 12.8 µM | 2.13 µM | 2.14 µM | 22.1 µM | 3.74 µM | 58.7 µM | 3.72 µM | 24.9 µM | 1.22 µM | 12.3 µM | 19.7 µM | 5.73 µM | 46.9 µM | 5.75 µM | 12.2 µM | 5.88 µM | CC50 (NCI-H522; 48 hours drug exposure, SRB): 50 µM
5 | Cc1ccc(C(=O)Nc2c(NC(=O)CCl)ccc3c2C(=O)c2ccccc2C3=O)cc1 [NSC749232] | 29.2 µM | > 100 µM | 12.3 µM | 12.3 µM | 14.1 µM | 5.81 µM | 5.75 µM | 20.8 µM | 8.81 µM | 49.1 µM | 8.91 µM | 2.03 µM | 8.95 µM | 0.891 µM | 8.28 µM | 1.78 µM | 31.4 µM | 1.78 µM | 6.62 µM | 4.85 µM | LC50 (concentration killing 50% of cells) (NCI-H460; 48 hours drug exposure, SRB): 34.1 µM
6 | CCN(CC)CCC(=O)Nc1ccc2c(c1)C(=O)c1cc(NC(=O)CCN(CC)CC)ccc1C2=O [NSC746365] | 3.95 µM | 15.5 µM | 1.44 µM | 1.45 µM | 4.85 µM | 1.9 µM | 1.91 µM | 20.3 µM | 6.56 µM | 45.9 µM | 6.61 µM | 4.59 µM | 1.4 µM | 1.38 µM | 3.55 µM | 1.53 µM | 8.27 µM | 1.51 µM | 7.66 µM | 5.21 µM | LC50 (concentration killing 50% of cells) (NCI-H460; 48 hours drug exposure, SRB): > 100 µM; CC50 (NCI-H522; 48 hours drug exposure, SRB): 19.3 µM
